Where two headings read alike, the source gives them in different places.
What was measured:
TbPTR1 = target: T1, TbPTR1 (Trypanosoma brucei brucei, UniProt O76290); assay: biochemical; details: for inhibition at 50 µM: read-out: % Inhibition TbPTR1 at 50 μM; for IC50: dose-response 0.001-100 μM
T1 construct: made in house
T1 sequence (O76290 1-268): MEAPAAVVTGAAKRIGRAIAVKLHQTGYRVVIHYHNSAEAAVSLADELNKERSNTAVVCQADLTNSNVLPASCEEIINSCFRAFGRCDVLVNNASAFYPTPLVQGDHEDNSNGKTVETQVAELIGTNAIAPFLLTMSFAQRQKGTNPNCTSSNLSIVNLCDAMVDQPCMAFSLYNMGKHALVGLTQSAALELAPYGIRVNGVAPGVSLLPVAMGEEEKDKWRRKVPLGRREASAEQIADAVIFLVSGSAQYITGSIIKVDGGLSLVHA

[1] = tested on: T. b. brucei Lister 427 bloodstream forms; assay: In vitro activity against T. brucei (HTS SYBR Green I growth inhibition assay); type: cell-based, Trypanosoma brucei brucei; details: Trypanosoma brucei, read-out: % Inhibition T. brucei at 50 μM
hERG = target: T2, hERG (Homo sapiens, UniProt Q12809); set-up: hERG inhibition liability assay
T2 construct: gene KCNH2
T2 sequence (Q12809 whole entry): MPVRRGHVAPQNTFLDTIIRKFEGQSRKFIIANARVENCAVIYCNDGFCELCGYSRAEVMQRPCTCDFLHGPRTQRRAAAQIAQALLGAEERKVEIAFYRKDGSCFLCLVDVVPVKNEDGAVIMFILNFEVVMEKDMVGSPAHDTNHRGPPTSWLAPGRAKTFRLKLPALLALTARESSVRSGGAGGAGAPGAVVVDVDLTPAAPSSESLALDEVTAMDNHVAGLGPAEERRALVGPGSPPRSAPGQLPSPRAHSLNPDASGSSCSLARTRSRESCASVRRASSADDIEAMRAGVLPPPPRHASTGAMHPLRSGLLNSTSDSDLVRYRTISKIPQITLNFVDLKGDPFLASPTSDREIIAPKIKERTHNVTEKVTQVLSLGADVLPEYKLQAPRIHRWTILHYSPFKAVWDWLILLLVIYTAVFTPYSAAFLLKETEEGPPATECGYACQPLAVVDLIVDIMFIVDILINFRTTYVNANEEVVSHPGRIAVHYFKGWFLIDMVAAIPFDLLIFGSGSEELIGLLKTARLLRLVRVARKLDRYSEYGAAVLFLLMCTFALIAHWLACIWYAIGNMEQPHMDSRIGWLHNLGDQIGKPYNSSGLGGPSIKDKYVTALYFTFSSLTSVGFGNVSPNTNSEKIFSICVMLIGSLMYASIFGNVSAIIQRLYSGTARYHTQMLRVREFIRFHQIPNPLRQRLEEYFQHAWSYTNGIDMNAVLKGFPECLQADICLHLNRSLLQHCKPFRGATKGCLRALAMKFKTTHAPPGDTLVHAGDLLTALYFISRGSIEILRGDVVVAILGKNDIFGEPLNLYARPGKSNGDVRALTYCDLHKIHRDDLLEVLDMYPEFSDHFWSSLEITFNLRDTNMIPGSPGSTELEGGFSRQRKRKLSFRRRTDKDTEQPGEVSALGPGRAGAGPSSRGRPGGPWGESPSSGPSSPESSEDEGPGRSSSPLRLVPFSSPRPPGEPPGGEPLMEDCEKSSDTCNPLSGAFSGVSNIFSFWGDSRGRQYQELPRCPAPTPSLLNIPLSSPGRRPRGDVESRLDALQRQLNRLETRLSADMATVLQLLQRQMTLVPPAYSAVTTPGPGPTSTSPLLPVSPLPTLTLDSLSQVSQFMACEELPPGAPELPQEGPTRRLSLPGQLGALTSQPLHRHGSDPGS
Method: (§1) Independent of the effect of any antiparasitic potential of compounds, they were evaluated using a panel of early-toxicity assays comprising cytotoxicity (A549, human lung adenocarcinoma epithelial cell line and WI-38, human lung fibroblasts), mitochondrial toxicity (786-O, human renal carcinoma cell line), hERG inhibition,[31] cytochrome P450 inhibition (CYP1A2, CYP2C9, CYP2C19, CYP2D6, and CYP3A4),[31] and Aurora B kinase inhibition. […] For the two compounds active against TbPTR1 (4m and 4o), IC50 against hERG, cytochrome P450, and mitochondrial toxicity were determined (reported in Supporting Information). We observed that the dose of compounds 4m, 4o, 4c, and 3k was 4 μM in the potentiation assays. […] In the case of hERG, CYP2D6, CYP2A9, CYP2C19, and mitochondrial toxicity, there is a selectivity index of around 3–4 fold, thus showing an acceptable profile.  Figure 10 Summary heat map of the in vitro assays to determine possible liability issues for all synthesized compounds. Assays were performed to assess inhibition of hERG and five CYP isoforms (1A2, 2C9, 2C19, 2D6, and 3A4), growth inhibition of A549 and W1-38 cell lines, and mitochondrial toxicity at 10 μM. The hDHFR inhibition was determined at 100 μM. The data, expressed as percentage values, were organized by adopting a color code for rapid and intuitive visualization. The ideal compound should have all tiles blue, indicating a safe toxicological profile for progressing into the development pipeline. The cells are colored from blue (100% of cell growth at the tested concentration) to red (0% of cell growth at the tested concentration) for A549 and W1-38 and from blue (0% of inhibitory activity at the tested concentration) to red (100% of inhibitory activity at the tested concentration) for CYP isoforms, hERG, hDHFR, and mitochondrial toxicity.

CYP1A2 = target: T3, CYP1A2 (Homo sapiens, UniProt P05177); assay: in vitro; set-up: cytochrome P450 isoform inhibition liability assay
T3 sequence (P05177 1-516): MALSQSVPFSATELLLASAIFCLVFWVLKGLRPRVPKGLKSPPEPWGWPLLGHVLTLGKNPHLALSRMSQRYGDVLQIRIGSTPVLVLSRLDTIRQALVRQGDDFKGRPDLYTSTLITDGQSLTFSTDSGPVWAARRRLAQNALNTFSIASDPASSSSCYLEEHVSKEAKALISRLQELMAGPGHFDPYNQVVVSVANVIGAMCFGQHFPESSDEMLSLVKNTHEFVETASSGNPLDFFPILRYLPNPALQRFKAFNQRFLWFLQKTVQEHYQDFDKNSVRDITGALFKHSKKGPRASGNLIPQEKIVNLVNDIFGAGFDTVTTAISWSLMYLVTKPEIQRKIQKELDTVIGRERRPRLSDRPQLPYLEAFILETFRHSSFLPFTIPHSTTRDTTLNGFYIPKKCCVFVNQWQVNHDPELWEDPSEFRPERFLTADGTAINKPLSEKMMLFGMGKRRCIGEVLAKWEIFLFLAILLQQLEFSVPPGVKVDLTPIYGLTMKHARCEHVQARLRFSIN
Method: as §1

CYP2C19 = CYP2C19 (Homo sapiens, UniProt P33261); assay: in vitro; set-up: cytochrome P450 isoform inhibition liability assay
CYP2C19, sequence (P33261 whole entry, canonical isoform): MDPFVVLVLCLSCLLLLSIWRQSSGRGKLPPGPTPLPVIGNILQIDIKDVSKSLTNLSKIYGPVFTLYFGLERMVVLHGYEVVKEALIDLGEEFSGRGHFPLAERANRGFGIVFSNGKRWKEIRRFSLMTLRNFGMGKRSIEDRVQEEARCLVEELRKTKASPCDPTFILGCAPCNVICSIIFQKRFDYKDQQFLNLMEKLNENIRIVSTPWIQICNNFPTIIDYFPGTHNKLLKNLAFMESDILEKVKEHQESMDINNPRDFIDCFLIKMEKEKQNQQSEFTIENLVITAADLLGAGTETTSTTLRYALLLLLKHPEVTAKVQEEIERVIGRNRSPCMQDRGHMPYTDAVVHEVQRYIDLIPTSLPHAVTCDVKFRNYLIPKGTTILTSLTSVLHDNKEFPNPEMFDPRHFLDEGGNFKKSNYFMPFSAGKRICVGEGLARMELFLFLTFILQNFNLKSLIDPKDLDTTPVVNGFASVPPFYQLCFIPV
Method: as §1

CYP2C9 = CYP2C9 (Homo sapiens, UniProt P11712); assay: in vitro; set-up: cytochrome P450 isoform inhibition liability assay
CYP2C9, sequence (P11712 whole entry, canonical isoform): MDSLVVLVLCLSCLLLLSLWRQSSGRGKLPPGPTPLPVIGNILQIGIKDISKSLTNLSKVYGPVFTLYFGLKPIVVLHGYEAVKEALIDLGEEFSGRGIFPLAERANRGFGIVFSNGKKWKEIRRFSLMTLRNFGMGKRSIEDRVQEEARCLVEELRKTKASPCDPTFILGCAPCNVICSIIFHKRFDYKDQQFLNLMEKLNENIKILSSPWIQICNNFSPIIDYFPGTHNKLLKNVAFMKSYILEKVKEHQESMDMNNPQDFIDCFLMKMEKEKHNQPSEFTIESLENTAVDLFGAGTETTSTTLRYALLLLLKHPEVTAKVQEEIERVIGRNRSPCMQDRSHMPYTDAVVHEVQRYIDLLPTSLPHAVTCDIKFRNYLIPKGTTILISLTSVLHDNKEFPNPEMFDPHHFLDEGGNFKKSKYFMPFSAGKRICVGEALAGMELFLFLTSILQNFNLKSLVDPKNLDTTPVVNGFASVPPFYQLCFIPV
Method: as §1

CYP2D6 = CYP2D6 (Homo sapiens, UniProt P10635); assay: in vitro; set-up: cytochrome P450 isoform inhibition liability assay
CYP2D6, sequence (P10635 whole entry, canonical isoform): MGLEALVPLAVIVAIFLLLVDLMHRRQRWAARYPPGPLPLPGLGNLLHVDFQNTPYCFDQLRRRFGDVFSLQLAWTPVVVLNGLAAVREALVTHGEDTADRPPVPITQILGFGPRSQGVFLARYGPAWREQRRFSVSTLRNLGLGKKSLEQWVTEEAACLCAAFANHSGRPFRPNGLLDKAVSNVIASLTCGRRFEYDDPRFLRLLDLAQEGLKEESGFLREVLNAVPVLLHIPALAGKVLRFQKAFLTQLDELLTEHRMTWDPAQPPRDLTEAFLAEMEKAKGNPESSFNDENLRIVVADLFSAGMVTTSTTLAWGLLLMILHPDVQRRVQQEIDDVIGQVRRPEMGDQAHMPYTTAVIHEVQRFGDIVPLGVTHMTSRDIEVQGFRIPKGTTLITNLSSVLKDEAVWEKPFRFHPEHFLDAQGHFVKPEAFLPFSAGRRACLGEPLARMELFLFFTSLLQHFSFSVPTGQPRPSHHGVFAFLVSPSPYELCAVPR
Method: as §1

CYP3A4 = CYP3A4 (Homo sapiens, UniProt P08684); assay: in vitro; set-up: cytochrome P450 isoform inhibition liability assay
CYP3A4, sequence (P08684 whole entry, canonical isoform): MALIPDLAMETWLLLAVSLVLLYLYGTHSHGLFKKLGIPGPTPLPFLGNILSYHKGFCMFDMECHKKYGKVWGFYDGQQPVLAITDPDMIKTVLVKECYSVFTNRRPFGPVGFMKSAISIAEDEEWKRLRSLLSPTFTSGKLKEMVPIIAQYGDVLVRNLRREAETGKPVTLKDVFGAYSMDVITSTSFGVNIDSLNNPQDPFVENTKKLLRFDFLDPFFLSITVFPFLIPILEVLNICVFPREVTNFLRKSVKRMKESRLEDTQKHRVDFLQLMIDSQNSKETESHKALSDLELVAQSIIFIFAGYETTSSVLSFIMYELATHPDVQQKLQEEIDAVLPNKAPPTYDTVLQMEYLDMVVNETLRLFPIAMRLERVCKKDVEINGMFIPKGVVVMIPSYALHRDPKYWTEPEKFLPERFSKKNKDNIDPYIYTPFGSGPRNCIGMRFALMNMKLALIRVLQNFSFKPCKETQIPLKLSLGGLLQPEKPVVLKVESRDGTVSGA
Method: as §1

hDHFR = target: T4, hDHFR (Homo sapiens, UniProt P00374); assay: biochemical; set-up: human DHFR enzyme inhibition
T4 construct: gene DHFR
T4 sequence (P00374 1-187): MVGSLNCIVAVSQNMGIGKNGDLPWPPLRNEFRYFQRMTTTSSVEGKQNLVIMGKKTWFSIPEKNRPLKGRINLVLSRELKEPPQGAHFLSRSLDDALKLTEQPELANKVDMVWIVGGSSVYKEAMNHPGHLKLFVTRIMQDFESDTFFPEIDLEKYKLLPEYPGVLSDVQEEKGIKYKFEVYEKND
Method: Figure 10 Summary heat map of the in vitro assays to determine possible liability issues for all synthesized compounds. Assays were performed to assess inhibition of hERG and five CYP isoforms (1A2, 2C9, 2C19, 2D6, and 3A4), growth inhibition of A549 and W1-38 cell lines, and mitochondrial toxicity at 10 μM. The hDHFR inhibition was determined at 100 μM. The data, expressed as percentage values, were organized by adopting a color code for rapid and intuitive visualization. The ideal compound should have all tiles blue, indicating a safe toxicological profile for progressing into the development pipeline. The cells are colored from blue (100% of cell growth at the tested concentration) to red (0% of cell growth at the tested concentration) for A549 and W1-38 and from blue (0% of inhibitory activity at the tested concentration) to red (100% of inhibitory activity at the tested concentration) for CYP isoforms, hERG, hDHFR, and mitochondrial toxicity.

786-O = assay: cells; set-up: mitochondrial toxicity in 786-O renal carcinoma cells; details: Homo sapiens, 786-0; mitochondrial toxicity
Method: as §1

in vitro [2] = assay: in vitro; set-up: cytotoxicity, per cent cell growth of A549 cells; details: human, a549 cells; read-out: % cell growth A549 at 10uM
Method: as §1

in vitro [3] = assay: in vitro; set-up: cytotoxicity, per cent cell growth of WI-38 fibroblasts; details: human, wi-38 cells; read-out: % cell growth W1-38 at 10uM
Method: as §1

[4] = 50 μM, standard deviation within ±10% of the value

| Structure (SMILES) | inhibition at 50 µM (TbPTR1; 50 μM compound) | inhibition at 50 µM [1, 4] | inhibition at 10 µM (hERG) | inhibition at 10 µM (CYP1A2) | inhibition at 10 µM (CYP2C19) | inhibition at 10 µM (CYP2C9) | inhibition at 10 µM (CYP2D6) | inhibition at 10 µM (CYP3A4) | inhibition at 100 µM (hDHFR) | inhibition at 10 µM (786-O) | viability at 10 µM (in vitro [2]) | viability at 10 µM (in vitro [3]) | inhibition at 10 µM (hDHFR) | IC50 (TbPTR1) | inhibition at 50 µM (TbPTR1) | inhibition at 50 µM [1] |
| --- | --- | --- | --- | --- | --- | --- | --- | --- | --- | --- | --- | --- | --- | --- | --- | --- |
| Nc1nnc(-c2cccc(Br)c2)s1 [1i] | 34.2 ± 1.5% | 1.8% | 14.6 ± 4.2% | 47 ± 2% | -30.9 ± 4.3% | -47.7 ± 2% | -45.1 ± 6.2% | -14.1 ± 6% | 19% | -3.6 ± 9.1% | 135 ± 4.6% | 111 ± 12.3% | – | – | – | – |
| Nc1nnc(N2CCC(Cc3ccccc3)CC2)s1 [4r, 5G(4GbenzylpiperidinG1Gyl)G1,3,4GthiadiazolG2Gamine] | 8.4 ± 0.3% | 1.8% | 46.5 ± 4.7% | 20 ± 1.2% | 89.4 ± 2% | 45.9 ± 3.3% | 82.7 ± 0.6% | 21.7 ± 4.3% | 13% | -7.3 ± 10.5% | 111 ± 6.5% | 92.7 ± 15.7% | – | – | – | – |
| Nc1nnc(-c2cccc(-c3ccc4c(c3)OCO4)c2)s1 [2g] | 4 ± 0.4% | 10.4% | 27.9 ± 5.2% | 97.8 ± 1% | 34.3 ± 3.7% | 28.7 ± 2.2% | 27 ± 2.36% | 28.2 ± 5% | – | -2.6 ± 13.7% | 116 ± 8.3% | 130 ± 14.1% | 12% | – | – | – |
| COc1cccc(OC)c1-c1nnc(N)s1 [1g] | 14.1 ± 1.2% | 4.2% | 4.3 ± 2% | 8.9 ± 0.3% | -30.6 ± 12.9% | -5.6 ± 1.3% | -30.5 ± 5.6% | 13 ± 6.4% | 12% | -3.9 ± 2% | 149.9 ± 0.3% | 80.3 ± 6.8% | – | – | – | – |
| Nc1nnc(-c2ccc(OCc3ccc(Cl)c(Cl)c3)cc2)s1 [1r] | < 0% | 58.4% | 40.7 ± 7.5% | 24.7 ± 1.4% | 69.6 ± 5.2% | 31.3 ± 0.4% | 48 ± 0.9% | 14.9 ± 5.7% | 17% | 4.7 ± 7.8% | 104 ± 6.6% | 68.7 ± 17.9% | – | – | – | – |
| Nc1nnc(NCc2ccc(C(F)(F)F)cc2)s1 [4f] | 37.7 ± 0.5% | < 0% | 69.9 ± 2.3% | 24.6 ± 2.5% | 11.9 ± 6.6% | 19.5 ± 1.3% | 72.4 ± 3.8% | 7.8 ± 9.8% | 19% | 9.6 ± 12.5% | 113 ± 4.8% | 80.9 ± 23.6% | – | 48 µM | – | – |
| Nc1nnc(-c2ccc(Cl)c(Cl)c2)s1 [1l] | 15.6 ± 0.7% | 30% | 91.7 ± 8.4% | 80.6 ± 1.6% | 64.9 ± 1.7% | 46.7 ± 1.5% | 52.7 ± 2.1% | 35.7 ± 7.9% | – | 7.6 ± 8.3% | 107 ± 1.2% | 77.8 ± 22.1% | 18% | – | – | – |
| CN(C)CCc1nnc(N)s1 [3i] | – | – | 0.7 ± 2.8% | -3.2 ± 4.2% | -30.1 ± 15.1% | -13.5 ± 3.9% | -35.4 ± 5% | -14.3 ± 3.1% | 12% | -12.4 ± 3.4% | 143 ± 11.8% | 114 ± 22.2% | – | – | 5.6 ± 0.6% | < 0% |
| Nc1nnc(-c2ccc(-c3nnc(N)s3)c(N)c2)s1 [1o] | 23.4 ± 0.1% | 1.6% | -1.9 ± 4.9% | 9.5 ± 4.2% | -28.3 ± 16% | -4.2 ± 4.2% | -38 ± 5.7% | -0.7 ± 4.4% | – | -6.1 ± 4.3% | 118 ± 9.4% | 103 ± 1.8% | 12% | – | – | – |
| Nc1nnc(NCc2ccc(Cl)c(Cl)c2)s1 [4e] | 48.5 ± 2.1% | < 0% | 75.6 ± 4.4% | 29.1 ± 3.4% | 36.8 ± 0.9% | 17.6 ± 0.9% | 99 ± 0.6% | 27.4 ± 6.8% | 24% | 3.6 ± 8.5% | 106 ± 2.7% | 68.5 ± 18.8% | – | 31 µM | – | – |
| COc1ccc(-c2ccc(-c3nnc(N)s3)nc2)cc1 [1t] | 8.3 ± 1.8% | 28.9% | 59.5 ± 42.9% | 76.4 ± 1.2% | 17 ± 5.7% | 19.7 ± 8.9% | 8.9 ± 2.4% | 8.5 ± 3.3% | – | 6.7 ± 17.3% | 60.7 ± 5.9% | 107 ± 10.4% | 8% | – | – | – |
